From patent publication US7741352B2, “KCNQ channel modulating compounds and their pharmaceutical use” (Neurosearch A/S, priority 2003, dated 2010)

Which melting point does the source give for `CN(C)S(=O)(=O)c1ccc(-c2cccc(COc3ccc(C(=O)O)c(O)c3)c2)cc1` [Compound 3-39, 4-(4′-Dimethylsulfamoyl-biphenyl-3-ylmethoxy)-2-hydroxy-benzoic acid] here?
Its melting point is 196 to 204 °C (dec.).

With `O=C(O)c1ccc(OCCCCCCC(O)CO)cc1O` (centres unmarked) [Compound 2-6, 4-(7,8-Dihydroxyoctyloxy)-2-hydroxy-benzoic acid] as the molecule, how does the melting point read?
The melting point was 168 to 170 °C.

With `CCCCCCCCOc1ccc(C(=O)O)c(O)c1` [Compound 1-3, 2-Hydroxy-4-octyloxy-benzoic acid] as the molecule, how does the melting point read?
The melting point was 100 to 102 °C.

Which melting point does the source give for `O=C(O)c1ccc(OCc2cccc(-c3cccc([N+](=O)[O-])c3)c2)cc1O` [Compound 3-23, 2-Hydroxy-4-(3′-nitro-biphenyl-3-ylmethoxy)-benzoic acid] here?
Its melting point is 188 to 193 °C (dec.).

With `O=C(Nc1ccc(OCc2ccc(F)cc2)cc1O)C(F)(F)F` [Compound 9-3, 2,2,2-trifluoro-N-[4-(4-fluoro-benzyloxy)-2-hydroxy-phenyl]-acetamide] as the molecule, how does the melting point read?
Its melting point is 143 to 145 °C.

Which melting point does the source give for `CC(=O)c1ccc(-c2cccc(COc3ccc(C(=O)O)c(O)c3)c2)s1` [Compound 3-29, 4-[3-(5-Acetyl-thiophen-2-yl)-benzyloxy]-2-hydroxy-benzoic acid] here?
Its melting point is 210 to 215 °C (dec.).

Which melting point does the source give for `Cn1ccc2cc(-c3cccc(COc4ccc(C(=O)O)c(O)c4)c3)ccc21` [Compound 3-33, 2-Hydroxy-4-[3-(1-methyl-1H-indol-5-yl)-benzyloxy]-benzoic acid] here?
The melting point was 181 to 183 °C (dec.).

For `CC(C)=CCC/C(C)=C/COc1ccc(C(=O)O)c(O)c1` [Compound 1-13, 4-(3,7-Dimethyl-octa-2,6-dienyloxy)-2-hydroxybenzoic acid], which melting point is on record?
The melting point was 97 to 106 °C.

With `O=C(O)c1cccc(-c2cccc(COc3ccc(C(=O)O)c(O)c3)c2)c1` [Compound 3-21, 3′-(4-Carboxy-3-hydroxy-phenoxymethyl)-biphenyl-3-carboxylic acid] as the molecule, how does the melting point read?
Its melting point is 211 to 227 °C (dec.).

For `O=C(O)c1cccc(-c2ccc(COc3ccc(C(=O)O)c(O)c3)cc2)c1` [Compound 3-7, 4′-(4-Carboxy-3-hydroxy-phenoxymethyl)-biphenyl-3-carboxylic acid], which melting point is on record?
The melting point was 249 to 255 °C (dec.).

With `O=C(O)c1ccc(OCc2ccc3ccccc3n2)cc1O` [Compound 1-19, 2-Hydroxy-4-(quinolin-2-ylmethoxy)-benzoic acid] as the molecule, how does the melting point read?
The melting point was 197 °C (dec.).

With `O=C(O)c1ccc(OCC(O)CO)cc1O` (centres unmarked) [Compound 2-1, 4-(2,3-Dihydroxypropoxy)-2-hydroxy-benzoic acid] as the molecule, how does the melting point read?
Its melting point is 151 to 153 °C.

Which melting point does the source give for `O=C(O)c1ccc(OCc2cccc(-c3ccc4c(c3)OCCO4)c2)cc1O` [Compound 3-36, 4-[3-(2,3-Dihydro-benzo[1,4]dioxin-6-yl)-benzyloxy]-2-hydroxy-benzoic acid] here?
The melting point was 170 to 175 °C (dec.).

Which melting point does the source give for `O=C(O)c1ccc(NCc2cccc([N+](=O)[O-])c2)cc1O` [Compound 6-1, 2-Hydroxy-4-(3-nitro-benzylamino)-benzoic acid] here?
The melting point was 189 °C (dec.).

Which melting point does the source give for `O=C(O)c1ccc(OCc2cccc(-c3cccnc3)c2)cc1O` [Compound 3-27, 2-Hydroxy-4-(3-pyridin-3-yl-benzyloxy)-benzoic acid] here?
The melting point was 189 to 195 °C (dec.).

For `O=C(O)c1ccc(Nc2ccccc2[N+](=O)[O-])cc1O` [Compound 8-12, 2-Hydroxy-4-(2-nitro-phenylamino)-benzoic acid], which melting point is on record?
Its melting point is 190 °C (dec.).

For `O=C(O)c1ccc(OCc2ccc(-n3cncn3)cc2)cc1O` [Compound 1-2, 2-Hydroxy-4-(4-[1,2,4]triazol-1-yl-benzyloxy)-benzoic acid], which melting point is on record?
The melting point was 229 °C (dec.).

With `O=C(O)c1ccc(OCc2ccc(-c3cccc(O)c3)cc2)cc1O` [Compound 3-8, 2-Hydroxy-4-(3′-hydroxy-biphenyl-4-ylmethoxy)-benzoic acid] as the molecule, how does the melting point read?
The melting point was 209 to 212 °C (dec.).

Which melting point does the source give for `CCCCCCCCCc1ccc(C(=O)O)c(O)c1` [Compound 11-1, 4-Nonyl salicylic acid] here?
The melting point was 94 to 97 °C.

With `O=C(O)c1ccc(OCCCCCCCCO)cc1O` [Compound 1-9, 2-Hydroxy-4-(8-hydroxy-octyloxy) benzoic acid] as the molecule, how does the melting point read?
The melting point was 119 to 121 °C.

Which melting point does the source give for `CC(=O)c1cccc(-c2ccc(COc3ccc(C(=O)O)c(O)c3)cc2)c1` [Compound 3-6, 4-(3′-Acetyl-biphenyl-4-ylmethoxy)-2-hydroxy-benzoic acid] here?
The melting point was 215 to 220 °C (dec.).

With `O=C(O)c1ccc(Oc2ccc([N+](=O)[O-])cc2)cc1O` [Compound 8-1, 2-Hydroxy-4-(4-nitro-phenoxy)-benzoic acid] as the molecule, how does the melting point read?
The melting point was 195 to 197 °C.

For `O=C(O)c1ccc(OCc2cccc(-c3ccc(Cl)c(Cl)c3)c2)cc1O` [Compound 3-30, 4-(3′,4′-Dichloro-biphenyl-3-ylmethoxy)-2-hydroxy-benzoic acid], which melting point is on record?
Its melting point is 211 to 215 °C (dec.).

Which melting point does the source give for `CCCCCCCCOc1ccc(C#N)c(O)c1` [Compound 12-5, 2-Hydroxy-4-octyloxy-benzonitrile] here?
Its melting point is 69 to 71 °C.

With `O=C(O)c1ccc(OCc2ccc(-c3ccoc3)cc2)cc1O` [Compound 3-4, 4-(4-Furan-3-yl-benzyloxy)-2-hydroxy-benzoic acid] as the molecule, how does the melting point read?
Its melting point is 202 to 206 °C (dec.).

Which melting point does the source give for `COCCOCCOc1ccc(C(=O)O)c(O)c1` [Compound 1-4, 2-Hydroxy-4-[2-(2-methoxy-ethoxy]-ethoxy]-benzoic acid] here?
The melting point was 110 to 112 °C.

Which melting point does the source give for `O=C(O)c1ccc(OCc2cccc(-c3ccc4c(c3)OCCCO4)c2)cc1O` [Compound 3-35, 4-[3-(3,4-Dihydro-2H-benzo[b][1,4]dioxepin-7-yl)-benzyloxy]-2-hydroxy-benzoic acid] here?
The melting point was 188 to 192 °C (dec.).

Which melting point does the source give for `CCCCCCCCOc1ccc(O)c(O)c1` [Compound 10-1, 4-Octyloxy-benzene-1,2-diol] here?
The melting point was 108 to 115 °C (dec.).

With `N#Cc1ccccc1-c1ccc(COc2ccc(C(=O)O)c(O)c2)cc1` [Compound 1-17, 4-(2′-Cyano-biphenyl-4-ylmethoxy)-2-hydroxy-benzoic acid] as the molecule, how does the melting point read?
The melting point was 220 °C (dec.).

For `O=C(Oc1ccc(C(=O)O)c(O)c1)c1ccc(-c2ccccc2)cc1` [Compound 5-1, 4-(4-Phenyl-benzoyloxy)-2-hydroxy benzoic acid], which melting point is on record?
The melting point was > 275 °C.

With `C=CCCOc1ccc(C(=O)O)c(O)c1` [Compound 1-5, 4-But-3-enyloxy-2-hydroxy-benzoic acid] as the molecule, how does the melting point read?
The melting point was 143 to 144 °C.

With `CC(=O)Nc1cccc(-c2ccc(COc3ccc(C(=O)O)c(O)c3)cc2)c1` [Compound 3-12, 4-(3′-Acetylamino-biphenyl-4-ylmethoxy)-2-hydroxy-benzoic acid] as the molecule, how does the melting point read?
Its melting point is 231 to 233 °C (dec.).

For `O=C(O)c1ccc(NCc2ccc(OC(F)F)cc2)cc1O` [Compound 6-2, 4-(4-Difluoromethoxy-benzylamino)-2-hydroxy-benzoic acid], which melting point is on record?
The melting point was 161 to 162 °C.

Which melting point does the source give for `O=C(O)c1ccc(OCc2cccc(-c3ccc4ccccc4c3)c2)cc1O` [Compound 3-38, 2-Hydroxy-4-(3-naphthalen-2-yl-benzyloxy)-benzoic acid] here?
The melting point was 190 to 194 °C (dec.).

For `COc1cccc(-c2cccc(COc3ccc(C(=O)O)c(O)c3)c2)c1` [Compound 3-22, 2-Hydroxy-4-(3′-methoxy-biphenyl-3-ylmethoxy)-benzoic acid], which melting point is on record?
The melting point was 103 to 115 °C (dec.).

For `Nc1ccc(Oc2ccc(C(=O)O)c(O)c2)cc1` [Compound 8-2, 4-(4-Amino-phenoxy)-2-hydroxy-benzoic acid], which melting point is on record?
Its melting point is 187 to 188 °C.

Which melting point does the source give for `C=CCCCCOc1ccc(C(=O)O)c(O)c1` [Compound 1-7, 4-Hex-5-enyloxy-2-hydroxy-benzoic acid] here?
The melting point was 105 °C.

Which melting point does the source give for `O=C(O)c1ccc(OCc2ccc(-c3ccncc3)cc2)cc1O` [Compound 3-2, 2-Hydroxy-4-(4-pyridin-4-yl-benzyloxy)-benzoic acid] here?
The melting point was 252 to 257 °C (dec.).

Which melting point does the source give for `CC(=O)c1cccc(-c2cccc(COc3ccc(C(=O)O)c(O)c3)c2)c1` [Compound 3-20, 4-(3′-Acetyl-biphenyl-3-ylmethoxy)-2-hydroxy-benzoic acid] here?
The melting point was 173 to 180 °C (dec.).

With `CCCCCCCCOc1ccc(NS(C)(=O)=O)c(O)c1` [Compound 9-2, N-(2-hydroxy-4-octyloxy-phenyl)-methanesulfonamide] as the molecule, how does the melting point read?
Its melting point is 98 to 101 °C.

Which melting point does the source give for `O=C(O)c1ccc(OC2CCOCC2)cc1O` [Compound 4-1, 2-hydroxy-4-(tetrahydro-pyran-4-yloxy)-benzoic acid] here?
The melting point was 179 to 181 °C (dec.).

For `O=C(O)c1ccc(OCc2ccc(-c3ccccc3)cc2)cc1O` [Compound 1-16, 4-(Biphenyl-4-ylmethoxy)-2-hydroxy-benzoic acid], which melting point is on record?
The melting point was 216 to 219 °C (dec.).

For `CCCCCCCCOc1ccc(NC(=O)C(F)(F)F)c(O)c1` [Compound 9-1, 2,2,2-trifluoro-N-(2-hydroxy-4-octyloxy-phenyl)-acetamide], which melting point is on record?
The melting point was 114 to 116 °C.

Which melting point does the source give for `N#Cc1cccc(-c2cccc(COc3ccc(C(=O)O)c(O)c3)c2)c1` [Compound 3-41, 4-(3′-Cyano-biphenyl-3-ylmethoxy)-2-hydroxy-benzoic acid] here?
The melting point was 155 to 170 °C (dec.).

For `COc1ccc(-c2ccc(COc3ccc(C(=O)O)c(O)c3)cc2)cc1OC` [Compound 3-15, 2-Hydroxy-4-(3′,4′-dimethoxy-biphenyl-4-ylmethoxy)-benzoic acid], which melting point is on record?
Its melting point is 200 to 204 °C (dec.).

For `O=C(O)c1ccc(OCc2ccc(-c3ccc4c(c3)OCO4)cc2)cc1O` [Compound 3-14, 4-[3′,4′-(Methylenedioxy)-biphenyl-4-ylmethoxy]-2-hydroxy-benzoic acid], which melting point is on record?
The melting point was 222 to 226 °C (dec.).

Which melting point does the source give for `Nc1cccc(-c2cccc(COc3ccc(C(=O)O)c(O)c3)c2)c1` [Compound 3-24, 4-(3′-Amino-biphenyl-3-ylmethoxy)-2-hydroxy-benzoic acid] here?
The melting point was 205 to 208 °C (dec.).

With `Cc1noc(C)c1COc1ccc(C(=O)O)c(O)c1` [Compound 1-1, 2-Hydroxy-4-(3,5-dimethyl-isoxazol-4-yl-methyloxy)-benzoic acid] as the molecule, how does the melting point read?
The melting point was 201 to 203 °C.

Which melting point does the source give for `CC(=O)Nc1ccc(CNc2ccc(C(=O)O)c(O)c2)cc1` [Compound 6-3, 4-(4-Acetylamino-benzylamino)-2-hydroxy-benzoic acid] here?
Its melting point is 154 °C.

Which melting point does the source give for `Cc1noc(C)c1-c1cccc(COc2ccc(C(=O)O)c(O)c2)c1` [Compound 3-40, 4-[3-(3,5-Dimethyl-isoxazol-4-yl)-benzyloxy]-2-hydroxy-benzoic acid] here?
Its melting point is 155 to 176 °C (dec.).
